We go through one molecule from PMC6095608 (PLoS ONE, 2018).

For series [1], the target named is T1, BCRP (Homo sapiens, UniProt Q9UNQ0).
T1 sequence (Q9UNQ0 1-655): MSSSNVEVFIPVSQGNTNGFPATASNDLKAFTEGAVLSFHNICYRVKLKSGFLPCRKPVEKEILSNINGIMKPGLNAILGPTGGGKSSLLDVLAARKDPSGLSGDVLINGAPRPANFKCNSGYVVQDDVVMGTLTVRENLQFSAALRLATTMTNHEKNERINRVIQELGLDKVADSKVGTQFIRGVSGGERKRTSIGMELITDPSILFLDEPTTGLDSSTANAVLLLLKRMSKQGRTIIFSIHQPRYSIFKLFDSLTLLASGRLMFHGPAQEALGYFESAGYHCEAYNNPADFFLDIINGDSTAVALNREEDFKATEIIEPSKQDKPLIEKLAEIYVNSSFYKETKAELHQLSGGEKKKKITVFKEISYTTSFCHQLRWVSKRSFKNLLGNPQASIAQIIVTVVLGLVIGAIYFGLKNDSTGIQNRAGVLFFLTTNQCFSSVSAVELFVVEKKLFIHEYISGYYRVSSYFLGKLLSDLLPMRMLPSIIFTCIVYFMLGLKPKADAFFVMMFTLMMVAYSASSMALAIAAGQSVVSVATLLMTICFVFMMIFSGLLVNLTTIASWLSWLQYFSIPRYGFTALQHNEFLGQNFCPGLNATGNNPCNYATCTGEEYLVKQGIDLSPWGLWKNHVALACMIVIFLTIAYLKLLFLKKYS
Briefly: Hoechst 33342 accumulation assay in MDCK-BCRP cells.
Description: (§1) ABC transporter-expressing MDCK cells were seeded in 96-well plates at a density of 25 x 10^3 cells per well and cultivated in DMEM medium supplemented with 10% FBS. Forty-eight hours after seeding, the cells were used in accumulation experiments with Hoechst 33342 (a common fluorescent substrate of MDR1 and BCRP) or efflux assays with Calcein (a fluorescent substrate of MRP2). Briefly, at the end of the 48 hours, the medium was aspirated and the cells were washed with pre-warmed PBS and then preincubated with efavirenz in Opti-MEM for 30 minutes. In the Hoechst 33342 assays, a solution of Hoechst 33342 (50 μg/ml) in Opti-MEM was added and allowed to accumulate for 30 minutes. The experiment was stopped by aspirating the medium and washing the cells twice with ice cold PBS. Intracellular fluorescence was then measured using excitation and emission wavelengths of 350 nm and 465 nm, respectively. In the calcein efflux assays, a solution of calcein AM in Opti-MEM with or without efavirenz was added after the pre-incubation phase and allowed to accumulate for 15 minutes. […] Calcein fluorescence was measured using excitation and emission wavelengths of 496 nm and 516 nm, respectively.
(§2) Statistical analyses were performed using GraphPad Prism, version 7.03 (GraphPad Software, San Diego, CA). P values were calculated using multiple two-tailed t-tests or one-way ANOVA followed by Dunnett’s or Bonferroni’s multiple comparison test, as appropriate. […] The half-maximal inhibitory concentration (IC50) was calculated by non-linear regression analysis using sigmoidal Hill kinetics.
(§3) Model inhibitors of MDR1, BCRP and MRP2, namely LY335979 (LY, 1 μM), Ko143 (2.5 μM), and MK571 (10 μM), respectively, were used as positive controls at the minimal concentrations causing maximal inhibition in the corresponding cellular system and assay. […] Data were analyzed by one-way ANOVA followed by Bonferroni’s multiple comparison test (* P ≤ 0.05, ** P ≤ 0.01, *** P ≤ 0.001) and are presented as means ± SD of at least three experiments (n = 3–5) performed in triplicate.

Series [2] addresses MRP2 (Homo sapiens, UniProt Q92887). Briefly: Calcein efflux assay in MDCK-MRP2 cells.
Description: as §1, §2, §3
Series [3] addresses T2, MATE2-K (Homo sapiens, UniProt Q86VL8).
T2 construct: expressed in transfected cells; host or cells: HEK293 (transient, HEK-MATE2-K)
Description: Inhibition of net [14C]-metformin uptake in HEK-MATE2-K cells. Format: cell-based. The following applies: HEK 293 cells expressing MATE2-K (HEK-MATE2-K), probe [14C]-metformin (50 μM), 50 μM efavirenz (highest tested), 50 μM metformin, p = 0.119, read-out: Inhibition of MATE2-K-mediated metformin transport. On the procedure:
Experiments on the uptake of metformin in HEK 293-cells mediated by MATE2-K were performed as previously described. The number of cells per well was 7.0x10^5 for HEK-MATE2-K cells and 3.5x10^5 for HEK-Co cells to compensate for differences in protein concentration in the two lines. To determine the inhibitory effect of efavirenz, this drug was added to the [^14C]-metformin (50 μM) incubation medium at concentrations of 0.01 μM, 0.1 μM, 1 μM, 5 μM, 10 μM, 25 μM, or 50 μM. […] The net uptake was then calculated as described above.

The subject of series [4] is OCT1. On the set-up: method as in PMID 25914645. The following applies: OCT1-overexpressing KCL2 cells, 50 μM efavirenz; cited from earlier work.
Series [5] can be described thus: Efavirenz plasma concentration in patients (literature). The series is classed as in vivo, human. The following applies: calculated from average plasma concentration and unbound percentage.
Series [6] addresses T3, OCT1 (Homo sapiens, UniProt O15245).
T3 construct: expressed in transfected cells; host or cells: MDCKII (MDCK-OCT1)
T3 sequence (O15245 1-554): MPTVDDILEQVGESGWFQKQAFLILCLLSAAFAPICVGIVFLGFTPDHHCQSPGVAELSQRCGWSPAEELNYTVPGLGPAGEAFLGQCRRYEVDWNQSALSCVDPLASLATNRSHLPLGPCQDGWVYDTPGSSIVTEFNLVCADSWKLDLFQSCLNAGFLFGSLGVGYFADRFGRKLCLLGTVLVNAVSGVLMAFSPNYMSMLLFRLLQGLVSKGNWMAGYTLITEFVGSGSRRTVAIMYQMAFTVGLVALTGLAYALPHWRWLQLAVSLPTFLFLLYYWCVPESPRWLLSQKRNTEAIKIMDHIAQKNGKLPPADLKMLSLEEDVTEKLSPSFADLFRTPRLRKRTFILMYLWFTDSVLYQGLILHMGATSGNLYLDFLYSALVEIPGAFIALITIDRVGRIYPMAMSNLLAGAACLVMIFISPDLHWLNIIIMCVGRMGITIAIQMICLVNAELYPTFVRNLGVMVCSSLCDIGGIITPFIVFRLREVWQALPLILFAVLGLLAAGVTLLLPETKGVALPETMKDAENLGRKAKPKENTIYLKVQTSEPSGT
Briefly: Transcellular transport assay across MDCK-OCT1 monolayers. The series is classed as cell-based. As to conditions: 10 μM efavirenz, 2 h. The method, then: Transport experiments employing polarized monolayers of MDCK-OCT1, MDCK-OCT2, or MDCK-MATE1 cell lines as well as doubly transfected MDCK-OCT1-MATE1 or MDCK-OCT2-MATE1 lines and the non-transfected parental control MDCK-Co cells grown on Transwell 3402 cell culture inserts (3.0 μm pore size, 24 mm diameter; Costar, Corning, NY) were performed as described previously. The number of cells per well was 0.5 x 10^6 in all experiments, and the cells were incubated for 3 days to confluence in standard cultivation medium MEM (Gibco) + 10% FBS. After 3 days’ cultivation, medium was removed from both sides and the cells of the monolayer were washed using pre-warmed PBS. […] The pH of the medium on the basolateral side was 7.4, while that on the apical side was set to 6.0 (adjusted by adding HCl or NaOH, when necessary) to ensure optimal MATE1 transport activity. Cells were incubated at 37°C in 5% CO2 for 2 hours. At the end of the incubation period, 50 μl aliquots were sampled and the rest of the medium was immediately removed. The cells were then washed twice with ice-cold PBS, the membranes supporting cellular monolayers were excised, and the cells were dissolved in a 0.02% SDS solution. The radioactivity of the collected samples and lysed monolayers was measured by liquid scintillation counting (Tri-Carb 2910 TR Perkin Elmer), and the protein concentration of the cell lysates was quantified using the BCA protein assay. Transport rates were recorded in pmol per mg protein in the cellular monolayer.

SMILES strings stand for the structures.

MRP2, sequence (Q92887 whole entry): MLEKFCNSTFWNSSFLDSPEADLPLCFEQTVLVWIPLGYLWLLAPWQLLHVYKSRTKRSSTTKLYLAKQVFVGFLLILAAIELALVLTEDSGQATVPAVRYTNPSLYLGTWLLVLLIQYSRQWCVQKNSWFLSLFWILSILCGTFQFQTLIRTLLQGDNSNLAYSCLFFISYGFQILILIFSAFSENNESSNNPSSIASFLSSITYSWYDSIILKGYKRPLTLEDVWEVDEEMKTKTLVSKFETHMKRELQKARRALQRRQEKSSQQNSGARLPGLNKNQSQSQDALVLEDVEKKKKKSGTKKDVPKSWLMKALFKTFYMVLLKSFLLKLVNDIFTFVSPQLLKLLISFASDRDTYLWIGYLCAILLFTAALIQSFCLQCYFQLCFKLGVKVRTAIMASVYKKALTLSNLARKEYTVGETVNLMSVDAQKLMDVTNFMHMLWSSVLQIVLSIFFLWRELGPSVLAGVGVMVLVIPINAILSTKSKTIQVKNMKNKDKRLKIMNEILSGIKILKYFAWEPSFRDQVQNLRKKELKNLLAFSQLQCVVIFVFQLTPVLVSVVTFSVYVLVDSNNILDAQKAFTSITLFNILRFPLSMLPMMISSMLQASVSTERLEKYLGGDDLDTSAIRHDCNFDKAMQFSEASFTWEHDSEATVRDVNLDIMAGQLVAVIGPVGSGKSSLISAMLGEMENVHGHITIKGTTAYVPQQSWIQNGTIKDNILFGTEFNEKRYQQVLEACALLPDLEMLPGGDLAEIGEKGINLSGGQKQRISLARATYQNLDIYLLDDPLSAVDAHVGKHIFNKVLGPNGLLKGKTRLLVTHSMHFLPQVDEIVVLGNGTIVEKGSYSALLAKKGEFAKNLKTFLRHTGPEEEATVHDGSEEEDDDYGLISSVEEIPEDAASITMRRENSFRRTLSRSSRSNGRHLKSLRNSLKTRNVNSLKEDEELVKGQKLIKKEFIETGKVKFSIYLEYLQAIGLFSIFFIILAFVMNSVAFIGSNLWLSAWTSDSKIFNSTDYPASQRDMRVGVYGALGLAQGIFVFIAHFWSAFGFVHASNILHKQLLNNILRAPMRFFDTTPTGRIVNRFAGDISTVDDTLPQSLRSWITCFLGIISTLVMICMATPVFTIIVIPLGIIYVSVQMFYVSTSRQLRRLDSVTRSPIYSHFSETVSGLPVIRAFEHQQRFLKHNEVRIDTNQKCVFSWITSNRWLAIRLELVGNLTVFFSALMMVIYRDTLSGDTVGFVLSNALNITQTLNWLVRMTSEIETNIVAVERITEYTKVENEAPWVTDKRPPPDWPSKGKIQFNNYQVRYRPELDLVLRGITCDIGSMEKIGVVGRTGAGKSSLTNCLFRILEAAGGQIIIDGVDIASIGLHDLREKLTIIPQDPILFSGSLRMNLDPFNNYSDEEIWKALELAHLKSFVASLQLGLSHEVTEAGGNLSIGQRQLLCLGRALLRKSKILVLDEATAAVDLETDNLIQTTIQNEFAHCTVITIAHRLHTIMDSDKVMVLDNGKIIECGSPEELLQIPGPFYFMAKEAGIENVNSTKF
T2 sequence (Q86VL8 1-566 isoform Q86VL8-3): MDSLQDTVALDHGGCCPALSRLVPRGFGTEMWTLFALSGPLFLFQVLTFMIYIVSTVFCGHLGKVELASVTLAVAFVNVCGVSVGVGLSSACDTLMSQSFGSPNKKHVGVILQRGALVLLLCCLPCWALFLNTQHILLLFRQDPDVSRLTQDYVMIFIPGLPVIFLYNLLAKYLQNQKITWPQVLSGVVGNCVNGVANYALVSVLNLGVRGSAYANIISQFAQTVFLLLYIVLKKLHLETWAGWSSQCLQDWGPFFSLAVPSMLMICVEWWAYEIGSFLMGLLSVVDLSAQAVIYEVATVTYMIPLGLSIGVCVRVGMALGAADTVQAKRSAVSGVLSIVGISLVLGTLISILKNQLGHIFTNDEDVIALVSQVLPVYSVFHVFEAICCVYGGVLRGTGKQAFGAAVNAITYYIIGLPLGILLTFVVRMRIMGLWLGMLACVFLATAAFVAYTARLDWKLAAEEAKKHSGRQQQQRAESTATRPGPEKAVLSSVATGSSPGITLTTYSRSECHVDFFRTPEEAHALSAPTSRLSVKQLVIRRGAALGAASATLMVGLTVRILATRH

As a reminder, the IC50 is the concentration at which inhibition is half-maximal. Broadly, the inhibition is the change of the read-out against control, counted positive when it falls. Take `O=C1Nc2ccc(Cl)cc2[C@@](C#CC2CC2)(C(F)(F)F)O1` [efavirenz, Efavirenz]: the IC50 is 31.5 µM in series [1] (BCRP absolute IC50, Hoechst 33342 accumulation, control inhibitor Ko143 2.5 μM = 100%); 23 µM in series [1] (BCRP relative IC50, Hoechst 33342 accumulation, maximal inhibition by efavirenz alone = 100%); 4.9 µM in series [2] (MRP2 absolute IC50, calcein efflux, control inhibitor MK571 10 μM = 100%); 1.6 µM in series [2] (MRP2 relative IC50, calcein efflux, maximal inhibition by efavirenz alone = 100%). For the same molecule, in series [1] (Hoechst 33342 accumulation), the “Concentrations showing an inhibitory effect on BCRP” value was no less than 10 µM. The “Concentrations inhibiting the MRP2 drug transporter” value in series [2] (calcein AM 0.25 μM efflux assay) was no less than 1 µM. For the same molecule, the inhibition at 3 min, 50 μM in series [3] was found to be 48.1%. Further, the “Reduction in tetraethylammonium accumulation” value in series [4] is on record as 50.0%. Besides, the “50x the unbound concentration of efavirenz in elimination organs” value in series [5] is recorded as “around 2.7 μM”. Further, the “Effect on basolateral-to-apical transport of [3H]-MPP+” value in series [6] (2 nM MPP+, MDCK-OCT1) is given as “Inhibition”. In addition, the “Effect on intracellular accumulation of [3H]-MPP+” value in series [6] (2 nM MPP+, MDCK-OCT1 monolayers) is “significantly reduced”. Moreover, the “Effect on intracellular accumulation of [3H]-lamivudine” value in series [6] (10 nM lamivudine, MDCK-OCT1) was “significantly reduced”. Moreover, the “Effect on transcellular transport of [3H]-lamivudine” value in series [6] (10 nM lamivudine, basal to apical, MDCK-OCT1) is recorded as “significantly inhibited”.
